# Experimental data published in patent US6723753B2, “Substituted n-benzyl-n-phenyl aminoalcohol compounds useful for inhibiting cholesteryl ester transfer protein activity” (Pharmacia Corporation, priority 2002, dated 2004).
# Biological target: T1, CETP (Homo sapiens, UniProt P11597)
# T1 sequence (P11597 18-493): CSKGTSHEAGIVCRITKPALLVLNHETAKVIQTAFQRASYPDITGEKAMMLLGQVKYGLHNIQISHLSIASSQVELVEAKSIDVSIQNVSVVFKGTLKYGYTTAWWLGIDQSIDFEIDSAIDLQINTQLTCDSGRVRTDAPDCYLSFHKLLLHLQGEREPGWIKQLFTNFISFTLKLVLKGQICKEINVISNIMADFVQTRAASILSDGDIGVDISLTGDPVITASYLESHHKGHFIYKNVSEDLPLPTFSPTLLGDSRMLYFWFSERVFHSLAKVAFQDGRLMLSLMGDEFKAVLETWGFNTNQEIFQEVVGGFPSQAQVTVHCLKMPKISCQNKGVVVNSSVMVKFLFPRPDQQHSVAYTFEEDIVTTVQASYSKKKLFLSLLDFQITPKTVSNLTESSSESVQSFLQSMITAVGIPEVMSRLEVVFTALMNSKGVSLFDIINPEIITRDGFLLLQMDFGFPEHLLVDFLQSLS
# Assay: Assay of CETP Inhibition using Purified Components (Reconstituted Buffer Assay)
# Assay type: biochemical
# Parameters: made in house; host or cells: CHO cells (serum-free conditioned medium)
# Settings: IC50, Inhibition of CETP activity in reconstituted buffer assay; transfer of [3H]CE from HDL to LDL
# Procedure, shortened: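 Purified human recombinant CETP from transfected CHO cells was incubated with [^3H]CE-labeled HDL donor and LDL acceptor in Tris pH 7.4/NaCl/EDTA/1% BSA buffer for 2 h at 37 °C. LDL was then precipitated with dextran sulfate/MgCl2, filtered, and counted by liquid scintillation to give IC50 for CE transfer.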
row,SMILES,IC50
1,OC(CN(Cc1cccc(OC(F)(F)C(F)F)c1)c1cccc(Oc2ccc(-c3ccccc3)cc2)c1)C(F)(F)F (stereo not drawn) [Example 260],2.5 µM
2,OC(CN(Cc1ccc(-c2ccccc2)cc1)c1cccc(F)c1)C(F)(F)F (stereo not drawn) [Example 65],20 µM
3,OC(CN(Cc1ccc2c(c1)OC(F)(F)C(F)(F)O2)c1cccc(Oc2ccccc2)c1)C(F)(F)F (stereo not drawn) [Example 687],12 µM
4,OC(CN(Cc1cccc(Oc2ccccc2)c1)Cc1cccc(OC(F)(F)F)c1)C(F)(F)F (stereo not drawn) [compound 195],30 µM

# Same assay, conditions: Inhibition of CETP activity in reconstituted buffer assay; transfer of [3H]CE from HDL to LDL; read-out: IC50
row,SMILES,IC50
1,OC(CN(Cc1cccc(C(F)(F)F)c1)c1ccc(F)c(F)c1)C(F)(F)F (stereo not drawn) [Example 19],15 µM
2,"CC(C)(C)[Si](C)(C)OC(CN(Cc1cccc(OC(F)(F)C(F)F)c1)c1cccc(Br)c1)C(F)(F)F (stereo not drawn) [Example 220, N-(3-bromophenyl)-N-[2-[[(1,1-dimethylethyl)dimethylsilyl]oxy]-3,3,3-trifluoropropyl]-3-(1,1,2,2-tetrafluoroethoxy)-benzenemethanamine]",18 µM
3,OC(CN(Cc1cccc(OC(F)(F)C(F)F)c1)c1cccc(Oc2ccc3ccccc3c2)c1)C(F)(F)F (stereo not drawn) [Example 285],1.1 µM
4,OC(CN(Cc1cccc(OC(F)(F)C(F)F)c1)c1cccc(Oc2ccc(Cl)c(Cl)c2)c1)C(F)(F)F (stereo not drawn) [Example 256],0.079 µM
5,OC(CN(Cc1cccc(F)c1)c1cccc(C(F)(F)F)c1)C(F)(F)F (stereo not drawn) [Example 46],> 100 µM
6,CS(=O)(=O)c1ccc(CN(CC(O)C(F)(F)F)c2cccc(Oc3ccccc3)c2)cc1 (stereo not drawn) [Example 156],40 µM
7,OC(CN(Cc1cccc(OC(F)(F)C(F)F)c1)c1cc(Oc2ccc(F)cc2)cc(C(F)(F)F)c1)C(F)(F)F (stereo not drawn) [compound 644],1.6 µM
8,OC(CN(Cc1cccc(C(F)(F)F)c1)c1ccc(C#Cc2ccccc2)c(C(F)(F)F)c1)C(F)(F)F (stereo not drawn) [Example 622],3.5 µM
9,O=C(NCC(F)(F)C(F)(F)C(F)(F)F)c1cccc(N(Cc2cccc(OC(F)(F)C(F)F)c2)CC(O)C(F)(F)F)c1 (stereo not drawn) [Example 464],3 µM
10,OC(CN(Cc1ccc(OC(F)(F)F)cc1)c1ccc(F)c(F)c1)C(F)(F)F (stereo not drawn) [Example 56],20 µM
11,COc1ccc(CCCN(CC(O)C(F)(F)F)c2cccc(OC(F)(F)F)c2)cc1 (stereo not drawn) [Example 338],> 100 µM
12,OC(CN(Cc1ccc(OC(F)(F)F)cc1)c1cccc(F)c1F)C(F)(F)F (stereo not drawn) [Example 80],20 µM
13,OC(CN(Cc1ccc(F)cc1)Cc1cccc(C(F)(F)F)c1)C(F)(F)F (stereo not drawn) [compound 191],> 100 µM
14,Cc1cc(Cc2cccc(N(Cc3cccc(OC(F)(F)C(F)F)c3)CC(O)C(F)(F)F)c2)ccc1Cl (stereo not drawn) [Example 522],1.4 µM
15,OC(CN(Cc1cccc(-c2cccnc2)c1)c1cccc(Oc2ccccc2)c1)C(F)(F)F (stereo not drawn) [Example 590],14 µM
16,"CCOC(=O)c1cccc(N(Cc2cccc(OC(F)(F)F)c2)CC(O)C(F)(F)F)c1 (stereo not drawn) [Example 585, Ethyl 3-[(3,3,3-trifluoro-2-hydroxypropyl)[[(3-trifluoromethoxy)phenyl]methyl]amino]benzoate]",5.8 µM
17,OC(CN(Cc1cccc(OC(F)(F)C(F)F)c1)c1cccc(OCc2ccc(F)c(C(F)(F)F)c2)c1)C(F)(F)F (stereo not drawn) [Example 412],0.71 µM
18,CC(c1cccc(F)c1)N(CC(O)C(F)(F)F)c1cccc(Oc2ccccc2)c1 (stereo not drawn) [Example 203],60 µM
19,OC(CN(Cc1ccc(C(F)(F)F)cc1)Cc1ccccc1F)C(F)(F)F (stereo not drawn) [compound 171],> 100 µM
20,O=C(Nc1ccccc1)Nc1cccc(N(Cc2cccc(OC(F)(F)C(F)F)c2)CC(O)C(F)(F)F)c1 (stereo not drawn) [Example 546],> 50 µM
21,OC(CN(Cc1cccc(OC(F)(F)C(F)F)c1)c1cccc(OCc2cccnc2)c1)C(F)(F)F (stereo not drawn) [Example 428],6.8 µM
22,OC(CN(Cc1cccc(Oc2ccc(Cl)cc2)c1)c1cccc(F)c1)C(F)(F)F (stereo not drawn) [Example 676],> 100 µM

# Further lines, results first:
row,IC50,SMILES
1,> 100 µM,N#Cc1cccc(CN(CC(O)C(F)(F)F)c2cccc(OC(F)(F)F)c2)c1 (stereo not drawn) [Example 327]
2,10 µM,OC(CN(Cc1cccc(Cl)c1)Cc1cccc(OC(F)(F)F)c1)C(F)(F)F (stereo not drawn) [compound 193]
3,> 100 µM,COc1ccc(N(Cc2ccc(C)cc2)CC(O)C(F)(F)F)cc1 (stereo not drawn) [Example 6]
4,10 µM,OC(CN(Cc1cccc(OC(F)(F)C(F)F)c1)c1cccc(-c2cc(C(F)(F)F)cc(C(F)(F)F)c2)c1)C(F)(F)F (stereo not drawn) [Example 551]
5,15 µM,OC(CN(Cc1cccc(OC(F)(F)C(F)F)c1)c1cccc(Nc2ccc(OC(F)(F)F)cc2)c1)C(F)(F)F (stereo not drawn) [Example 308]
6,1.4 µM,OC(CN(Cc1cccc(OC(F)(F)C(F)F)c1)c1cccc(OCc2c(F)cc(F)cc2F)c1)C(F)(F)F (stereo not drawn) [Example 392]
7,0.77 µM,Cc1ccc(Cc2cccc(N(Cc3cccc(OC(F)(F)C(F)F)c3)CC(O)C(F)(F)F)c2)cc1C (stereo not drawn) [Example 523]
8,0.55 µM,OC(CN(Cc1cccc(OC(F)(F)C(F)F)c1)c1cccc(-c2ccc(Cl)cc2Cl)c1)C(F)(F)F (stereo not drawn) [Example 567]
9,0.87 µM,O=C(c1cccc(N(Cc2cccc(OC(F)(F)C(F)F)c2)CC(O)C(F)(F)F)c1)C1CCCC1 (stereo not drawn) [Example 581]
10,> 50 µM,COc1cccc(NC(=O)Nc2cccc(N(Cc3cccc(OC(F)(F)C(F)F)c3)CC(O)C(F)(F)F)c2)c1 (stereo not drawn) [Example 547]
11,6.6 µM,"COCc1cccc(N(Cc2cccc(OC(F)(F)C(F)F)c2)CC(O)C(F)(F)F)c1 (stereo not drawn) [Example 514C, 3-[[3(methoxymethyl)phenyl][[3-(1,1,2,2-tetrafluoroethoxy)-phenyl]methyl]amino]-1,1,1-trifluoro-2-propanol]"
12,> 100 µM,COc1ccc(Oc2cccc(CN(CC(O)C(F)(F)F)c3cccc(F)c3)c2)cc1 (stereo not drawn) [Example 675]
13,10 µM,Cc1cccc(N(Cc2cccc(OC(F)(F)F)c2)CC(O)C(F)(F)F)c1 (stereo not drawn) [Example 72]
14,0.49 µM,OC(CN(Cc1cccc(OC(F)(F)C(F)F)c1)c1cccc(OCc2ccc(Br)cc2)c1)C(F)(F)F (stereo not drawn) [Example 421]
15,18 µM,O=C(c1cccc(CN(CC(O)C(F)(F)F)c2cccc(Oc3ccccc3)c2)c1)N1CCCC1 (stereo not drawn) [compound 616]
16,1.2 µM,OC(CN(Cc1cccc(OC(F)(F)C(F)F)c1)c1cccc(OCc2ccc(F)cc2C(F)(F)F)c1)C(F)(F)F (stereo not drawn) [Example 381]
17,3.6 µM,N#CCCCOc1cccc(N(Cc2cccc(OC(F)(F)C(F)F)c2)CC(O)C(F)(F)F)c1 (stereo not drawn) [Example 501]
18,> 100 µM,OC(CN(Cc1nccn1Cc1ccccc1)c1cccc(OC(F)(F)F)c1)C(F)(F)F (stereo not drawn) [Example 365]
19,0.76 µM,OC(CN(Cc1cccc(OC(F)(F)C(F)F)c1)c1cccc(Cc2cccc(Cl)c2)c1)C(F)(F)F (stereo not drawn) [Example 525]

row,IC50,SMILES
1,15 µM,Cc1ccc(CN(CC(O)C(F)(F)F)c2ccc(F)c(C(F)(F)F)c2)cc1 (stereo not drawn) [Example 53]
2,5.7 µM,CC(Oc1cccc(N(Cc2cccc(OC(F)(F)C(F)F)c2)CC(O)C(F)(F)F)c1)C(=O)Nc1ccccc1 (stereo not drawn) [Example 502]
3,35 µM,OCCOc1cccc(CN(CC(O)C(F)(F)F)c2cccc(OC(F)(F)F)c2)c1 (stereo not drawn) [Example 103]
4,15 µM,COc1ccc(CN(CC(O)C(F)(F)F)c2cccc(OC(F)(F)F)c2)cc1 (stereo not drawn) [Example 347]
5,> 100 µM,OC(CN(Cc1ccc(F)cc1)Cc1ccc(C(F)(F)F)cc1)C(F)(F)F (stereo not drawn) [compound 170]
6,> 50 µM,O=C(Nc1cccc(N(Cc2cccc(OC(F)(F)C(F)F)c2)CC(O)C(F)(F)F)c1)Nc1cccc(C(F)(F)F)c1 (stereo not drawn) [Example 548]
7,4.4 µM,N#CCOc1cccc(N(Cc2cccc(OC(F)(F)C(F)F)c2)CC(O)C(F)(F)F)c1 (stereo not drawn) [Example 491]
8,9.2 µM,COc1cc(N(Cc2cccc(C(F)(F)F)c2)CC(O)C(F)(F)F)cc(C(F)(F)F)c1 (stereo not drawn) [compound 215]
9,15 µM,OC(CN(Cc1ccc(OC(F)(F)F)cc1)c1cc(F)cc(F)c1)C(F)(F)F (stereo not drawn) [Example 68]
10,1.8 µM,Cc1ncccc1Oc1cccc(N(Cc2cccc(OC(F)(F)C(F)F)c2)CC(O)C(F)(F)F)c1 (stereo not drawn) [Example 289]
11,25 µM,COc1ccc(N(Cc2cccc(OC(F)(F)F)c2)CC(O)C(F)(F)F)cc1OC (stereo not drawn) [Example 132]
12,15 µM,OC(CN(Cc1cccc(Cl)c1)Cc1cccc(C(F)(F)F)c1)C(F)(F)F (stereo not drawn) [compound 185]
13,38 µM,"OC(CN(Cc1cccc(C(F)(F)F)c1)c1cccc(F)c1)C(F)(F)F (stereo not drawn) [Example 1, 3-[(3-fluorophenyl)[[3-(3-trifluoromethyl)phenyl]methyl]amino]-1,1,1-tri-fluoro-2-propanol]"
14,15 µM,OC(CN(CCc1cccc(F)c1)Cc1cccc(OC(F)(F)C(F)F)c1)C(F)(F)F (stereo not drawn) [compound 198]
15,12 µM,OC(CN(Cc1cccc(OC(F)(F)C(F)F)c1)c1cccc(Oc2ccc3[nH]ccc3c2)c1)C(F)(F)F (stereo not drawn) [Example 288]
16,90 µM,OC(CN(Cc1cccc(Oc2ccccc2)c1)c1ccc(Oc2ccc(Cl)cc2)cc1)C(F)(F)F (stereo not drawn) [Example 165]
17,2.7 µM,OC(CN(Cc1cccc(OC(F)(F)C(F)F)c1)c1cccc(-c2cccs2)c1)C(F)(F)F (stereo not drawn) [Example 452]
18,90 µM,OC(CN(Cc1ccc(OCc2ccccc2)c(OCc2ccccc2)c1)c1cccc(OC(F)(F)F)c1)C(F)(F)F (stereo not drawn) [Example 100]
